Assays:
Jurkat cells [1] = assay: cell death at 24 h; format: cell-based; conditions: Homo sapiens, Jurkat, 24 h, read-out: Cell death EC50 (μM), Jurkat cells
Description: (§1) Since an early mitochondrial superoxide (O2^−) mediates apoptosis induced by Bz-423, the O2^− response of cells 1 h following incubation with drug was examined, as well as cell death at 24 h, as previously described (see, e.g., Blatt, N. B., et al., 2002 J Clin Invest 110, 1123-1132; incorporated herein by reference in its entirety).

[2] = test system: migration inhibitory factor (MIF); assay: gene expression profiling of Ramos cells (Affymetrix U133A); format: cell-based, human
Description: In vitro testing with Ramos cells to determine the changes in gene expression (at the level of mRNA) induced by Bz-423 was performed by culturing cells at a density of 500,000 cells per ml. Solvent control (DMSO, final concentration 0.1% V/V]), Bz-423, or Bz-OMe (10 μM) was added to cells. After 4 h, cells were harvested and RNA prepared using Trizol Reagent (#15596-018, Life Technologies, Rockville, Md.) and the RNeasy Maxi Kit (# 75162, Qiagen, Valencia, Calif.) according to manufacturers protocols. Single stranded cDNA was synthesized by reverse transcription using poly (A) RNA present in the starting total RNA sample. Single stranded cDNA was converted into double stranded cDNA and then in vitro transcription carried out in the presence of biotinylated UTP and CTP to produce biotin-labeled cRNA. cRNA was fragmented in the presence of Mg2+, and hybridized to the human genome U133A Genechip array (Affymetrix). Hybridization results were quantified using a GeneArray scanner and analysis carried out according to the instructions provided by Affymetrix. […]
The data were analyzed to detect genes changes Bz treatment according to the criteria that the log-transformed mean signal changed at least four-fold in treated compared to vehicle control samples and that the coefficient of variance for control values (n=4) was less than 10%. […]

Ramos B cells = assay: cell death of Ramos B cells, propidium iodide exclusion by flow cytometry, 24 h; format: cell-based, human; conditions: Homo sapiens, Ramos, 24 h; read-out: Cell death EC50 (μM), Ramos cells
Jurkat cells [3] = assay: early O2− (ROS) response, 1 h; format: cell-based; conditions: Homo sapiens, Jurkat, 1 h, read-out: ROS EC50 (μM), Jurkat cells
Description: (§2) To detect O2^−, cells are incubated with DHE (10 μM) for 30 min at 37° C. and are analyzed by flow cytometry to measure ethidium fluorescence. Flow analysis of mitochondrial transmembrane potential (ψm) is conducted by labeling cells with DiOC6(3) (20 nM) for 15 min at 37 degrees C. A positive control for disruption of ψm is established using carbonyl cyanide m-chlorophenylhydrazone (CCCP, 50 μM). Caspase activation assays are performed with FAM-VAD-fluoromethylketone. Processing of the substrate is evaluated by flow cytometry.
as §1

B cells = assay: collapse of ΔΨm detected with DiOC6(3); format: cell-based; conditions: by 5 hours
Description: as §2
To characterize the death mechanism engaged by Bz-423, intracellular ROS, ΔΨm, cytochrome c release, caspase activation, and DNA fragmentation were measured over time (the results presented are for B cells but do characterize the response in many different cell types). The first event detected after exposure to Bz-423 is an increase in the fraction of cells that stain with dihyroethedium (DHE), a redox-sensitive agent that reacts specifically with O2^−.
Collapse of ΔΨm was detected using DiOC6(3), a mitochondria-selective potentiometric probe.

[4] = target: mitochondrial F1F0-ATPase (Bos taurus, UniProt P13621+P32876); assay: biochemical; parameters: species or system bovine; conditions: for Ki: synthesis
Ramos cells = assay: cell culture cytotoxicity assays; format: cell-based, human; conditions: 10% FBS
Description: (§3) Like most 1,4-benzodiazepines, Bz-423 binds strongly to bovine serum albumin (BSA), which reduces the effective concentration of drug free in solution. For example, in tissue culture media containing 10% (v/v) fetal bovine serum (FBS), ca. 99% of the drug is bound to BSA. Therefore, cell culture cytotoxicity assays are conducted in media with 2% FBS to reduce binding to BSA and increase the free [Bz-423]. Under these conditions, the dose response-curve is quite sharp such that there is a limited concentration range at which Bz-423 is only partly effective. Since some benzodiazepines are known to have anti-proliferative properties, the effect of Bz-423 at concentrations <ED50 were carefully analyzed and observed that in addition to inducing apoptosis, Bz-423 prevented cell growth after 3 d in culture. In these low serum conditions, the cytotoxic and anti-proliferative effects overlapped making it difficult to study each effect independently. […] While higher amounts of drug may also block proliferation, it caused apoptosis well before the effects on proliferation could be observed.
To confirm the decrease in cell number relative to control cells after 3 d of treatment is due to decreased proliferation and not cell death balanced by proliferation, in addition to cell counting, cell divisions were studied. PKH-67 is a fluorescent probe that binds irreversibly to cell membranes and upon cell division is partitioned equally between the daughter cells, making it possible to quantify cell division by flow cytometry. Ramos cells stained with PKH67 and treated with Bz-423 had fewer cell divisions at sub-cytotoxic concentrations which confirmed that the decrease in cell number was due to anti-proliferative affects and not cell death. To determine if Bz-423 induced anti-proliferation was specific to Ramos cells, cell counting and cell cycle experiments were done in other B cell lines and cell lines derived from solid tumors.

[5] = target: T1, bovine serum albumin (BSA) (Bos taurus, UniProt P02769); assay: binding to bovine serum albumin in tissue culture media; format: in vitro ADME; conditions: tissue culture media containing 10% (v/v) FBS
T1 construct: from tissue; host or cells: fetal bovine serum in tissue culture media
T1 sequence (P02769 25-607): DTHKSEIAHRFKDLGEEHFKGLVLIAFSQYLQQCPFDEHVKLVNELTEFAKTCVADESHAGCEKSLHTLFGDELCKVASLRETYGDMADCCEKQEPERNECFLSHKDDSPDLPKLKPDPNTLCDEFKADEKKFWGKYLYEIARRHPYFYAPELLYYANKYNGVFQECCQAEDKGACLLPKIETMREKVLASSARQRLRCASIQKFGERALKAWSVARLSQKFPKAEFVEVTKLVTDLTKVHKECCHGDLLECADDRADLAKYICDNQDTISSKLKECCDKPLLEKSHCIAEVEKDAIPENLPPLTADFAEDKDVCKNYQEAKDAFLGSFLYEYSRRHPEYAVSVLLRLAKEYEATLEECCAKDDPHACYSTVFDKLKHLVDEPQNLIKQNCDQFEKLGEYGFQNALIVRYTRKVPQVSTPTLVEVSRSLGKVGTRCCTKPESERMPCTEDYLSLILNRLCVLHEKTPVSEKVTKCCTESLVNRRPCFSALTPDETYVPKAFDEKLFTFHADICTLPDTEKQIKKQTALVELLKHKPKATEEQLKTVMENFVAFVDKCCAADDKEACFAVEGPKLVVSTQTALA
Description: as §3

Q: Which results are given for `CN1C(=O)C(Cc2ccc3ccccc3c2)N=C(c2ccc(O)cc2)c2cc(Cl)ccc21` (stereo not shown) [Bz-423]?
A: EC50 (Jurkat cells [1]): 6 µM; induction of MIF [2]: approximately 10 fold; EC50 (Ramos B cells): 6.3 µM; EC50 (Jurkat cells [3]): 10 µM; cells with collapse of ΔΨm (B cells): > 90%; EC50 ([4]; ATPase activity EC50 (μM), Synthesis, bovine SMPs): 5.5 µM; Ki ([4]; Ki (E), three-dimensional fit, Bz-423): 6.9 ± 0.3 µM; Ki ([4]; Ki (ES), three-dimensional fit, Bz-423): 10 ± 1 µM; Ki ([4]; competitive inhibition constant (Ki(E)), fit of dependence of Vmax/Km on Bz-423 concentration): 7.2 ± 0.3 µM; Ki ([4]; uncompetitive inhibition constant (Ki(ES)), fit of dependence of Vmax on Bz-423 concentration): 11 ± 2 µM; amounts of drug with minimal cytotoxicity (Ramos cells): 10 to 15 µM; concentrations at which only apoptosis was observed (Ramos cells): > 20 µM; drug bound to BSA [5]: ca. 99%

Source: US20090275099A1 (priority 2004, published 2009)
